Earlier results on 47 molecules are cited in PMC4360375 (Journal of Medicinal Chemistry, 2015).

One may read the pIC50 as the IC50 on a negative log10 scale, so that one unit is a factor of ten.

The test system of one series is GABA uptake, rat synaptosome. Particulars: literature data set; ref 10.1021/jm980492e; cited from earlier work.
Consider `O=C(O)C1=CCCN(CCOCCC(c2ccccc2)c2ccccc2)C1` [An_1999/4_30, O(CCC(c1ccccc1)c1ccccc1)CCN1CC(=CCC1)C(O)=O], for which the pIC50 is listed as 7.319.

`O=C(O)[C@@H]1CCCN(CCON=C(c2ccccc2)c2ccccc2)C1` [An_1999/4_(R)-7, O(\N=C(\c1ccccc1)/c1ccccc1)CCN1C[C@@H](CCC1)C(O)=O]: the negative-log IC50 (pIC50) is reported as 6.863.

Regarding `O=C(O)[C@@H]1CCCN(CCCN(c2ccccc2)c2ccccc2)C1` [An_1999/4_(R)-10, OC(=O)[C@@H]1CCCN(C1)CCCN(c1ccccc1)c1ccccc1], the negative-log IC50 (pIC50) is on record as 5.046.

As to `O=C(O)[C@@H]1CCCN(CCCCN(c2ccccc2)c2ccccc2)C1` [An_1999/4_(R)-11, OC(=O)[C@@H]1CCCN(C1)CCCCN(c1ccccc1)c1ccccc1], the pIC50 is reported as 5.585.

For the molecule `O=C(O)[C@@H]1CCCN(CCCCCN(c2ccccc2)c2ccccc2)C1` [An_1999/4_(R)-12, OC(=O)[C@@H]1CCCN(C1)CCCCCN(c1ccccc1)c1ccccc1], the pIC50 was 5.86.

Regarding `O=C(O)[C@@H]1CCCN(CCCCCCN(c2ccccc2)c2ccccc2)C1` [An_1999/4_(R)-13, OC(=O)[C@@H]1CCCN(C1)CCCCCCN(c1ccccc1)c1ccccc1], the negative-log IC50 (pIC50) was 6.18.

As to `O=C(O)[C@@H]1CCCN(CCCCCCCN(c2ccccc2)c2ccccc2)C1` [An_1999/4_(R)-14], the pIC50 is on record as 6.638.

Regarding `O=C(O)[C@@H]1CCCN(CCCCCCCCN(c2ccccc2)c2ccccc2)C1` [An_1999/4_(R)-15], the pIC50 is 5.889.

Turning to `O=C(O)[C@@H]1CCCN(CCCCCCCC(=O)N(c2ccccc2)c2ccccc2)C1` [An_1999/4_(R)-16], the pIC50 was 5.046.

Turning to `O=C(O)[C@@H]1CCCN(CCOCCN(c2ccccc2)c2ccccc2)C1` [An_1999/4_(R)-17, O(CCN1C[C@@H](CCC1)C(O)=O)CCN(c1ccccc1)c1ccccc1], the pIC50 is on record as 7.046.

As for `O=C(O)[C@@H]1CCCN(CCCCOCCN(c2ccccc2)c2ccccc2)C1` [An_1999/4_(R)-18, O(CCCCN1C[C@@H](CCC1)C(O)=O)CCN(c1ccccc1)c1ccccc1], the negative-log IC50 (pIC50) was 6.523.

Take `O=C(O)[C@@H]1CCCN(CCCOCCCN(c2ccccc2)c2ccccc2)C1` [An_1999/4_(R)-19, O(CCCN1C[C@@H](CCC1)C(O)=O)CCCN(c1ccccc1)c1ccccc1]: the negative logarithm of the IC50 (pIC50) is on record as 5.523.

As to `O=C(O)[C@@H]1CCCN(CCOCCOCCN(c2ccccc2)c2ccccc2)C1` [An_1999/4_(R)-20, O(CCN1C[C@@H](CCC1)C(O)=O)CCOCCN(c1ccccc1)c1ccccc1], the pIC50 was 5.046.

Take `O=C(O)[C@@H]1CCCN(CCOCC=C(c2ccccc2)c2ccccc2)C1` [An_1999/4_(R)-21, O(CCN1C[C@@H](CCC1)C(O)=O)C\C=C(\c1ccccc1)/c1ccccc1]: the pIC50 is 6.585.

In the case of `Cc1ccccc1/C(=C/COCCN1CCC[C@@H](C(=O)O)C1)c1ccccc1` [An_1999/4_(R)-22, O(CCN1C[C@@H](CCC1)C(O)=O)C\C=C(\c1ccccc1C)/c1ccccc1], the pIC50 is given as 6.62.

As to `Cc1ccccc1C(=CCOCCN1CCC[C@@H](C(=O)O)C1)c1ccccc1C` [An_1999/4_(R)-23, O(CCN1C[C@@H](CCC1)C(O)=O)C\C=C(\c1ccccc1C)/c1ccccc1C], the pIC50 is 6.959.

Turning to `Cc1ccccc1C(=CCOCCCN1CCC[C@@H](C(=O)O)C1)c1ccccc1C` [An_1999/4_(R)-24, O(CCCN1C[C@@H](CCC1)C(O)=O)C\C=C(\c1ccccc1C)/c1ccccc1C], the pIC50 is listed as 7.097.

`O=C(O)[C@@H]1CCCN(CCOCC=C(c2ccc(Cl)cc2)c2ccc(Cl)cc2)C1` [An_1999/4_(R)-25, Clc1ccc(cc1)\C(=C\COCCN1C[C@@H](CCC1)C(O)=O)\c1ccc(Cl)cc1]: the negative-log IC50 (pIC50) was 6.018.

The series is the same for the next values; noted with them: literature data set; ref 10.1021/jm981027k; cited from earlier work.
Consider `Cc1ccccc1/C(=N\OCCN1CCC[C@H](C(=O)O)C1)c1sccc1C` [An_1999/3_83, s1ccc(C)c1/C(=N/OCCN1C[C@H](CCC1)C(O)=O)/c1ccccc1C], for which the pIC50 is on record as 6.886.

With `Cc1cc(Cl)ccc1/C(=N/OCCN1CCC[C@@H](C(=O)O)C1)c1sccc1C` [An_1999/3_84, Clc1cc(C)c(cc1)\C(=N\OCCN1C[C@@H](CCC1)C(O)=O)\c1sccc1C], the pIC50 is 7.046.

`Cc1ccsc1/C(=N\OCCN1CCC[C@@H](C(=O)O)C1)c1ccc(Cl)cc1Cl` [An_1999/3_85, Clc1cc(Cl)ccc1\C(=N\OCCN1C[C@@H](CCC1)C(O)=O)\c1sccc1C]: the pIC50 is given as 7.523.

`COc1cccc(/C(=N/OCCN2CCC[C@@H](C(=O)O)C2)c2sccc2C)c1` [An_1999/3_86, s1ccc(C)c1\C(=N/OCCN1C[C@@H](CCC1)C(O)=O)\c1cc(OC)ccc1]: the pIC50 is reported as 7.046.

Regarding `CCc1ccsc1C(=NOCCN1CCC[C@@H](C(=O)O)C1)c1sccc1CC` [An_1999/3_87, s1ccc(CC)c1\C(=N\OCCN1C[C@@H](CCC1)C(O)=O)\c1sccc1CC], the negative logarithm of the IC50 (pIC50) is recorded as 7.046.

For the molecule `CCc1ccccc1C(=NOCCN1CCC=C(C(=O)O)C1)c1ccccc1CC` [An_1999/3_88, O(\N=C(\c1ccccc1CC)/c1ccccc1CC)CCN1CC(=CCC1)C(O)=O], the negative logarithm of the IC50 (pIC50) is 6.745.

Regarding `Cc1ccccc1/C(=N\OCCN1CCC[C@@H](C(=O)O)C1)c1ccccc1F` [An_1999/3_89, Fc1ccccc1/C(=N/OCCN1C[C@@H](CCC1)C(O)=O)/c1ccccc1C], the negative-log IC50 (pIC50) is 7.398.

Regarding `Cc1ccccc1/C(=N\OCCN1CCC[C@@H](C(=O)O)C1)c1ccccc1Cl` [An_1999/3_90, Clc1ccccc1/C(=N/OCCN1C[C@@H](CCC1)C(O)=O)/c1ccccc1C], the pIC50 is recorded as 6.699.

As to `Cc1ccccc1/C(=N\OCCN1CCC[C@H](C(=O)O)C1)c1cccc(Cl)c1` [An_1999/3_91, Clc1cc(ccc1)/C(=N/OCCN1C[C@H](CCC1)C(O)=O)/c1ccccc1C], the pIC50 is 7.046.

As for `Cc1ccccc1/C(=N\OCCN1CCC=C(C(=O)O)C1)c1cccc(Cl)c1` [An_1999/3_92, Clc1cc(ccc1)/C(=N/OCCN1CC(=CCC1)C(O)=O)/c1ccccc1C], the pIC50 is listed as 6.824.

Take `O=C(O)[C@@H]1CCCN(CCON=C(c2cccc(Cl)c2)c2cccc(Cl)c2)C1` [An_1999/3_93, Clc1cc(ccc1)\C(=N\OCCN1C[C@@H](CCC1)C(O)=O)\c1cc(Cl)ccc1]: the negative-log IC50 (pIC50) is 6.509.

For the molecule `O=C(O)[C@@H]1CCCN(CCON=C(c2ccc(F)cc2Cl)c2ccc(F)cc2Cl)C1` [An_1999/3_94, Clc1cc(F)ccc1\C(=N\OCCN1C[C@@H](CCC1)C(O)=O)\c1ccc(F)cc1Cl], the pIC50 is given as 7.

`CN1CCC[C@@H]1/C(=N\OCCN1CCC[C@@H](C(=O)O)C1)c1ccccc1` [An_1999/3_95, O(\N=C(/[C@@H]1N(CCC1)C)\c1ccccc1)CCN1C[C@@H](CCC1)C(O)=O]: the pIC50 is reported as 7.222.

On to `Cc1ccccc1/C(=C\OCCN1CCC[C@@H](C(=O)O)C1)c1ccccc1` [An_1999/3_96, O(\C=C(/c1ccccc1C)\c1ccccc1)CCN1C[C@@H](CCC1)C(O)=O], for which the negative-log IC50 (pIC50) was 7.699.

As for `Cc1ccccc1/C(=C/OCCN1CCC[C@@H](C(=O)O)C1)c1ccccc1` [An_1999/3_97, O(\C=C(\c1ccccc1C)/c1ccccc1)CCN1C[C@@H](CCC1)C(O)=O], the pIC50 is 7.301.

With `Cc1ccccc1/C(=C\OCCN1CCC[C@@H](C(=O)O)C1)c1ccc(F)cc1C` [An_1999/3_99, Fc1cc(C)c(cc1)\C(=C\OCCN1C[C@@H](CCC1)C(O)=O)\c1ccccc1C], the pIC50 is on record as 7.523.

Regarding `Cc1cc(F)ccc1C(=COCCN1CCC=C(C(=O)O)C1)c1ccc(F)cc1C` [An_1999/3_100, Fc1cc(C)c(cc1)\C(=C\OCCN1CC(=CCC1)C(O)=O)\c1ccc(F)cc1C], the negative logarithm of the IC50 (pIC50) was 7.097.

Turning to `Cc1ccccc1/C(=C\OCCN1CCC[C@@H](C(=O)O)C1)c1ccccc1Cl` [An_1999/3_101, Clc1ccccc1/C(=C/OCCN1C[C@@H](CCC1)C(O)=O)/c1ccccc1C], the pIC50 is reported as 8.

For `COc1cccc(/C(=C/OCCN2CCC[C@@H](C(=O)O)C2)c2ccccc2C)c1` [An_1999/3_102, O(C)c1cc(ccc1)/C(=C/OCCN1C[C@@H](CCC1)C(O)=O)/c1ccccc1C], the negative logarithm of the IC50 (pIC50) is given as 7.097.

Take `CCc1ccccc1C(=COCCN1CCC[C@@H](C(=O)O)C1)c1ccccc1CC` [An_1999/3_103, O(\C=C(\c1ccccc1CC)/c1ccccc1CC)CCN1C[C@@H](CCC1)C(O)=O]: the pIC50 is listed as 7.523.

For `CCc1ccccc1C(=COCCN1CCC=C(C(=O)O)C1)c1ccccc1CC` [An_1999/3_104, O(\C=C(\c1ccccc1CC)/c1ccccc1CC)CCN1CC(=CCC1)C(O)=O], the pIC50 is 7.301.

Turning to `O=C(O)C1=CCCN(CCOC=C(c2cccc(F)c2)c2cccc(F)c2)C1` [An_1999/3_105, Fc1cc(ccc1)\C(=C\OCCN1CC(=CCC1)C(O)=O)\c1cc(F)ccc1], the pIC50 is 6.456.

As for `O=C(O)[C@@H]1CCCN(CCO/C=C(/c2ccc(F)cc2F)c2cc(F)ccc2F)C1` [An_1999/3_106, Fc1cc(F)ccc1/C(=C/OCCN1C[C@@H](CCC1)C(O)=O)/c1cc(F)ccc1F], the pIC50 is 7.301.

On to `O=C(O)[C@@H]1CCCN(CCOC=C(c2cc(F)ccc2F)c2cc(F)ccc2F)C1` [An_1999/3_107, Fc1ccc(F)cc1\C(=C\OCCN1C[C@@H](CCC1)C(O)=O)\c1cc(F)ccc1F], for which the negative-log IC50 (pIC50) is on record as 6.745.

Consider `O=C(O)[C@@H]1CCCN(CCO/C=C(/c2ccccc2)c2ccccc2Cl)C1` [An_1999/3_108, Clc1ccccc1\C(=C/OCCN1C[C@@H](CCC1)C(O)=O)\c1ccccc1], for which the pIC50 was 7.301.

With `O=C(O)[C@@H]1CCCN(CCOC=C(c2ccccc2Cl)c2ccccc2Cl)C1` [An_1999/3_109, Clc1ccccc1\C(=C\OCCN1C[C@@H](CCC1)C(O)=O)\c1ccccc1Cl], the pIC50 is on record as 7.301.

In the case of `O=C(O)C1=CCCN(CCOC=C(c2ccccc2Cl)c2ccccc2Cl)C1` [An_1999/3_110, Clc1ccccc1\C(=C\OCCN1CC(=CCC1)C(O)=O)\c1ccccc1Cl], the negative-log IC50 (pIC50) was 7.921.

With `O=C(O)[C@@H]1CCCN(CCOC=C(c2ccc(F)cc2Cl)c2ccc(F)cc2Cl)C1` [An_1999/3_111, Clc1cc(F)ccc1\C(=C\OCCN1C[C@@H](CCC1)C(O)=O)\c1ccc(F)cc1Cl], the pIC50 was 7.18.

With `O=C(O)[C@@H]1CCCN(CCOC=C(c2cccc(Cl)c2)c2cccc(Cl)c2)C1` [An_1999/3_112, Clc1cc(ccc1)\C(=C\OCCN1C[C@@H](CCC1)C(O)=O)\c1cc(Cl)ccc1], the pIC50 is listed as 6.699.
